Data: ChEMBL document CHEMBL1201862, “PubChem BioAssay data set” (2004)
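Results reflect a 48-hour exposure of cells in 96-well plates to compound at five concentrations. The concentration for 50% growth inhibition is given as GI50.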 Active and inactive are the calls of the source. Cut-off read from the data, not from the text of the source: active = GI50 up to about 1.1 µM and inactive = higher.

What was measured:
Test in all cases: NCI-60 cell line screen, 48 h
MDA-N = test system: MDA-N
MDA-MB-231 = test system: MDA-MB-231
DU-145 = test system: DU-145
Hs-578T = test system: Hs-578T
T47D = test system: T47D
MDA-MB-435 = test system: MDA-MB-435
LXFL 529 = test system: LXFL 529
RXF 631 = test system: RXF 631

Measured: GI50

CCOC(=O)C(NC(C)=O)(Nc1ccc(F)cc1)C(F)(F)F (configuration not stated)
inactive: MDA-N 4.75 µM | MDA-MB-231 > 100 µM | DU-145 > 100 µM | Hs-578T > 100 µM | T47D 23.2 µM | MDA-MB-435 3.95 µM

Cn1cnc(/C=C/C#N)c1
inactive: MDA-N > 100 µM | MDA-MB-231 > 100 µM | MDA-MB-435 > 100 µM

O=C1C(Cl)N(c2ccc(Cl)cc2Cl)C1c1c[nH]c2ccccc12 (configuration not stated)
inactive: LXFL 529 > 100 µM

O=C(O)CN(CC(=O)O)C1CCCCC1N(CC(=O)O)CC(=O)NCCN=C=S (configuration not stated)
inactive: MDA-N > 100 µM | MDA-MB-231 > 100 µM | DU-145 > 100 µM | Hs-578T > 100 µM | T47D > 100 µM | MDA-MB-435 > 100 µM

CC(C)(C)C1(c2ccc(C3(c4ccccc4)Oc4ccccc4S3)[nH]2)Oc2ccccc2S1 (configuration not stated)
inactive: LXFL 529 > 100 µM | RXF 631 > 100 µM

CCOC(=O)/C(=N/Nc1ccc(C)cc1)N1C(=S)N(C)N=C(C)C=C1S
inactive: MDA-MB-231 32.7 µM | DU-145 > 100 µM | Hs-578T 25.7 µM | T47D > 100 µM | MDA-MB-435 > 100 µM

COc1cc2c(cc1OC)C1Cc3sccc3CN1CC2 (configuration not stated)
inactive: LXFL 529 > 100 µM | RXF 631 > 100 µM

NC(=O)CCC(N=C(N)c1csc(C2OC(CO)C(O)C2O)n1)C(=O)O (configuration not stated)
inactive: LXFL 529 > 100 µM

O=c1c(Cc2ccc(Cc3c(O)oc4ccccc4c3=O)cc2)c(O)oc2ccccc12
inactive: MDA-N > 100 µM | MDA-MB-231 > 100 µM | DU-145 > 100 µM | Hs-578T > 100 µM | T47D > 100 µM | MDA-MB-435 > 100 µM
